Laboratory results published in patent publication US8877759B2, “Aminopyrazines as ATR kinase inhibitors” (Vertex Pharnaceuticals Incorporated, priority 2011, dated 2014).

Target: T1, full-length ATR (Homo sapiens, UniProt Q13535)
T1 construct: Assays were carried out at 25° C. in the presence of 5 nM full-length ATR
Assay: ATR Inhibition Assay (radioactive-phosphate incorporation)
Format: biochemical
Conditions: for ATR Ki: Ki(app), 5 nM full-length ATR, 10 μM [γ-33P]ATP, 800 μM target peptide, 25° C.

T1 sequence (Q13535 whole entry): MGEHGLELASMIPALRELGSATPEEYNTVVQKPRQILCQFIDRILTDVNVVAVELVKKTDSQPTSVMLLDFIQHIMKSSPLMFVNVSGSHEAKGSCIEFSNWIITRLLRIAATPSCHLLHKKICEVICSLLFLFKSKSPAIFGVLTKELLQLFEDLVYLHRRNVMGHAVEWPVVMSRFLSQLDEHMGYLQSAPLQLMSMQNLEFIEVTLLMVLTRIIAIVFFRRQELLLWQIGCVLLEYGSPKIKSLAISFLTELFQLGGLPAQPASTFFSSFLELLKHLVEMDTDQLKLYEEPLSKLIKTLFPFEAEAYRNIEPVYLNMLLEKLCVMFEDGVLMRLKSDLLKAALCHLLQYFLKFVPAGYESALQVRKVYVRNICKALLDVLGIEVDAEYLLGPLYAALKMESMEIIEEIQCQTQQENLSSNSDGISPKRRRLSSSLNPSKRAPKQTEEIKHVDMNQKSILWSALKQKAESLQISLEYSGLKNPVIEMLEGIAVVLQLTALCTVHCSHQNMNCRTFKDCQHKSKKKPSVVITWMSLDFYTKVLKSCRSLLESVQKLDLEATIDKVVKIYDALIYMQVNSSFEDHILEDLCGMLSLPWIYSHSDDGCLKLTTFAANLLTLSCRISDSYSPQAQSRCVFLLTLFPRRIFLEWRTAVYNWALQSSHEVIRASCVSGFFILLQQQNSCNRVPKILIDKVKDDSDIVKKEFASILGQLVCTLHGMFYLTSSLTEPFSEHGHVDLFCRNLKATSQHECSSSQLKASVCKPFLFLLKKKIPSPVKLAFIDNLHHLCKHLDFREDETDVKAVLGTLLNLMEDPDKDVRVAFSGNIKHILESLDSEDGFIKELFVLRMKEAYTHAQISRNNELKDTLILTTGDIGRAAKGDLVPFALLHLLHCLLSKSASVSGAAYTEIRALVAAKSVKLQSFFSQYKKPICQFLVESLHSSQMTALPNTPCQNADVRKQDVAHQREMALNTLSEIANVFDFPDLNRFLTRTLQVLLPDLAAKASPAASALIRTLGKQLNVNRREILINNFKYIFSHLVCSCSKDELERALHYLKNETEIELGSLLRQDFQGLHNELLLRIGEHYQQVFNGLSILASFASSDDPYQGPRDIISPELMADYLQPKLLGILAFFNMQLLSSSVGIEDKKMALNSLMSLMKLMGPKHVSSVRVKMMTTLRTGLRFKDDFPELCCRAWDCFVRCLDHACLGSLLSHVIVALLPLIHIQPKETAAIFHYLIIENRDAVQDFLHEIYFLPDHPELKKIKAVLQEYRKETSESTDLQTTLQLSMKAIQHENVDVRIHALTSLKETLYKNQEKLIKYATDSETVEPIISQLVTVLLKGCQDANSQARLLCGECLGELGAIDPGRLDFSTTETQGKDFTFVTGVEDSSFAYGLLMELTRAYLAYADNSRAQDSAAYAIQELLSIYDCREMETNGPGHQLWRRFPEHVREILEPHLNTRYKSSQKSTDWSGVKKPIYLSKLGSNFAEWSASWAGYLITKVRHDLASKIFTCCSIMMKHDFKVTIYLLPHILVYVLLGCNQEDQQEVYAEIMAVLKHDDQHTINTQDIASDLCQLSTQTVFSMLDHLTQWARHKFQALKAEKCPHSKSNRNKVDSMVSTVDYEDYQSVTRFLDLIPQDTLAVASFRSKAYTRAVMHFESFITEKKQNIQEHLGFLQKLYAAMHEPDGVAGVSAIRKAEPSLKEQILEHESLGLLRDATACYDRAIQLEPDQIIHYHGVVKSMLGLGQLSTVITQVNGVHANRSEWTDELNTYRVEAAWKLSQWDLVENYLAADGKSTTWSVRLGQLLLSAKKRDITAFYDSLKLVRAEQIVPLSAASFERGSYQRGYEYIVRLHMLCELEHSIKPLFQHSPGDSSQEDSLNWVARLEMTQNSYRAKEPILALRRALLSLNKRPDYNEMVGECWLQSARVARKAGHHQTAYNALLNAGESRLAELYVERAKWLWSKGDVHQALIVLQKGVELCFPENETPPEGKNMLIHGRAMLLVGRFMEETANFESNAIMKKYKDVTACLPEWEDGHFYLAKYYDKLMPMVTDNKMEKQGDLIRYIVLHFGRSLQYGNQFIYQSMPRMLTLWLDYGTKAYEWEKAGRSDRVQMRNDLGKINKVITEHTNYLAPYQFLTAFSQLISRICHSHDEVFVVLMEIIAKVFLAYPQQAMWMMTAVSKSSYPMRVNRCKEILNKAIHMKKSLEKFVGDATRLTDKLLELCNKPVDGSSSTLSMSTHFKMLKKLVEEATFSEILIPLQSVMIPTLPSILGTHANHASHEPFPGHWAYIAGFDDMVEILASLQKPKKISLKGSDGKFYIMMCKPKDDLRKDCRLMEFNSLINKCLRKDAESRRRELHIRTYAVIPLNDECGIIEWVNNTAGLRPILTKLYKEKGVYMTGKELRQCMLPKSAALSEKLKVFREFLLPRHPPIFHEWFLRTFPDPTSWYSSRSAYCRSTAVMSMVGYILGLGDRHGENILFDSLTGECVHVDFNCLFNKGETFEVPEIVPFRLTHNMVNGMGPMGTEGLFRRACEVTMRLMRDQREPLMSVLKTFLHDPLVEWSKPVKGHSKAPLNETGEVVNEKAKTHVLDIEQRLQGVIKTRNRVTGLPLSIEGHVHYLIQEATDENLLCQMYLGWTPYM

CC(C)(C#N)c1cc(-c2cnc(N)c(-c3nnc(-c4ccc(N5CCC5)cc4)o3)n2)ccn1 [Compound I-118]
ATR Ki: +++ (Compounds with a Ki value >5 nM but ≦1 nM are marked with “+++.”)

CN1CC(Oc2ccc(-c3nnc(-c4nc(-c5ccnc(C(C)(C)C#N)c5)cnc4N)o3)cc2)C1 [Compound I-121]
Ki: < 1 nM

CC(C)(C#N)c1cc(-c2cnc(N)c(-c3nnc(-c4ccc(CNC5CCCOC5)cc4)o3)n2)ccn1 (stereo not shown) [Compound I-122]
Ki: < 1 nM

CC(C)(C#N)c1cc(-c2cnc(N)c(-c3nnc(-c4ccc(N5CC(N)C5)cc4)o3)n2)ccn1 [Compound I-123]
Ki: < 1 nM

CC(C)(C#N)c1cc(-c2cnc(N)c(-c3nnc(-c4ccc(CNC5CCOCC5)cc4F)o3)n2)ccn1 [Compound I-124]
Ki: < 1 nM

CC(C)(C#N)c1cc(-c2cnc(N)c(-c3nnc(-c4cccc(N5CCC(N)CC5)c4)o3)n2)ccn1 [Compound I-125]
Ki: 5 to 20 nM

CC(C)(C#N)c1cc(-c2cnc(N)c(-c3nnc(-c4ccc(CNC5CCOCC5)cc4)o3)n2)ccn1 [Compound I-126]
Ki: < 1 nM

CC(C)(C#N)c1cc(-c2cnc(N)c(-c3nnc(-c4ccc(C5=CCNCC5)cc4)o3)n2)ccn1 [Compound I-128]
Ki: < 1 nM

CC(C)(C#N)c1cc(-c2cnc(N)c(-c3nnc(-c4ccc(C5=NCCN5)cc4)o3)n2)ccn1 [Compound I-129]
ATR Ki: +++ (Compounds with a Ki value >5 nM but ≦1 nM are marked with “+++.”)

CC(N)CNc1ccc(-c2nnc(-c3nc(-c4ccnc(C(C)(C)C#N)c4)cnc3N)o2)cc1 (stereo not shown) [Compound I-130]
Ki: < 1 nM

CN(C)C1CN(c2ccc(-c3nnc(-c4nc(-c5ccnc(C(C)(C)C#N)c5)cnc4N)o3)cc2)C1 [Compound I-131]
Ki: < 1 nM

CCCN(CCOC)C(=O)c1cc(-c2cnc(N)c(-c3cc(-c4ccccc4)no3)n2)ccn1 [Compound I-132]
ATR Ki: +++ (Compounds with a Ki value >5 nM but ≦1 nM are marked with “+++.”)

COc1ccccc1-c1nnc(-c2nc(-c3ccnc(C4(C#N)CCNCC4)c3)cnc2N)o1 [Compound I-133]
Ki: < 1 nM

CC(C)(C#N)c1cc(-c2cnc(N)c(-c3nnc(-c4ccc(F)cc4F)o3)n2)ccn1 [Compound I-134]
ATR Ki: +++ (Compounds with a Ki value >5 nM but ≦1 nM are marked with “+++.”)

Nc1ncc(-c2ccnc(CO)c2)nc1-c1cc(-c2ccc(CNC3CCOCC3)cc2)no1 [Compound I-135]
Ki: < 1 nM

N#CCc1cc(-c2cnc(N)c(-c3cc(-c4ccc(CNC5CCOCC5)cc4)no3)n2)ccn1 [Compound I-136]
Ki: < 1 nM

N#CCc1cc(-c2cnc(N)c(-c3nnc(-c4ccc(CNC5CCOCC5)cc4)o3)n2)ccn1 [Compound I-137]
Ki: < 1 nM

CC(C)(C#N)c1nccc(-c2cnc(N)c(-c3cc(-c4ccc(CNC5CCOCC5)cc4)no3)n2)c1F [Compound I-138]
ATR Ki: +++ (Compounds with a Ki value >5 nM but ≦1 nM are marked with “+++.”)

CC(C)(C#N)c1nccc(-c2cnc(N)c(-c3cc(-c4ccc(CNCC5COC5)cc4)no3)n2)c1F [Compound I-139]
Ki: 5 to 20 nM
